Test results: article PMC4305287, “Two Novel α7 Nicotinic Acetylcholine Receptor Ligands: In Vitro Properties and Their Efficacy in Collagen-Induced Arthritis in Mice” (PLoS ONE, 2015)
“And” between values parts separate entries of the source, which are not always exact repeats. Equal entries are not always repeated. Where two headings read alike, the source gives them in different places.

How the values were obtained:
[1] = target: T1, α1β1 nAChR (muscle receptor) (Homo sapiens, UniProt P02708+P07510+P11230+Q07001); experiment: α-bungarotoxin binding to TE671 cell membranes
T1 construct: host or cells: TE671 cell membranes
Protocol: Broad selectivity was assessed at Cerep (Celle l’ Evescault, France), as described in the Cerep catalog, though the determination of the effect of PMP-311 and PMP-072 in in vitro radioligand receptor binding assays with 52 different receptors, channels, and transporters. The specific ligand binding to the receptors is defined as the difference between the total binding, and the nonspecific binding determined in the presence of an excess of unlabelled ligand. The results are expressed as a percent of control specific binding and as the mean percent inhibition of control specific binding obtained in the presence of 10 μM PMP-311 and PMP-072. Individual and mean values are presented in the results section. The IC50 values (concentration causing a half-maximal inhibition of control specific binding) and Hill coefficients (nH) were determined by non-linear regression as described above.

[2] = pharmacokinetics in CD1 mice; assay type: in vivo, mouse; conditions: for Kp at 30 min: CD1, mouse, brain, read-out: Brain penetration; for Kp at 30 min / Brain penetration: relative to plasma level 30 min after 1 mg/kg IV; for bioavailability: read-out: %F (bioavailability)
Protocol: Pharmacokinetic studies were carried out at Cerep using non-cannulated, non-fasted CD1 mice (Charles River Laboratories, Wilmington, MA). PMP-311 or PMP-072 were formulated in phosphate buffered saline (PBS), pH 7.4, as a clear solution and 1 mg/kg was administered by bolus intravenous (IV) injection or 5 mg/kg by oral gavage. Plasma samples were obtained from 3 mice per time point at 15, 30, 60, 120, 240, 360, 480 and 1440 min post-dose. The plasma samples were processed using acetonitrile precipitation and analyzed by HPLC-MS or HPLC-MS/MS to determine the concentration of drug as compared to a plasma calibration curve (aliquots of drug-free plasma were spiked with the test compound at the specified concentration levels and processed together with the unknown plasma samples using the same procedure). The processed plasma samples were stored frozen (−20°C) until the HPLC-MS/MS analysis. Peak areas were recorded, and the concentrations of the test compound in the unknown plasma samples were determined using the respective calibration curve. The reportable linear range of the assay was determined, along with the lower limit of quantitation (LLQ).
Plots of plasma concentration of compound versus time were constructed. The fundamental pharmacokinetic parameters of compound after oral and IV dosing (Cmax: maximum concentration, Tmax: time to maximum concentration, T1/2: terminal elimination half-life, AUC: area under the curve, CI: clearance, Vd: volume of distribution, and %F: bioavailability) were obtained from the non-compartmental analysis of the plasma data using WinNonlin (Pharsight, St. Louis, MO).

[3] = system: T2, human α7 nAChR primed with PNU-120596; experiment: electrophysiology of oocytes primed with PNU-120596; assay type: biochemical; conditions: after 60 s priming with 300 μM PNU-120596; PMP-311 1 μM, PMP-072 10 μM, MLA 10 μM
T2 construct: expressed in transfected cells; host or cells: Xenopus laevis oocytes injected with cRNA; clones from Dr. Jon Lindstrom (α7) and Dr. Millet Treinin (RIC-3)
Protocol: Each oocyte received two initial control applications of 300 μM ACh, followed by the experimental drug application, and subsequent control application of 300 μM ACh, unless otherwise indicated. Responses to experimental drug applications were determined relative to the preceding ACh control responses in order to normalize the data, compensating for the varying levels of channel expression among the oocytes. Responses for α7 nAChR were calculated as net charge, since peak currents inaccurately report the agonist concentration dependence of α7 nAChR-mediated responses. […] Imax, n, and the EC50 were all unconstrained for the fitting procedures except in the case of the ACh concentration-response curves.

rat α7 nAChR = rat α7 nAChR (Rattus norvegicus, UniProt Q05941); experiment: cell-based; assay type: binding
Protocol: Binding studies with rat α7 nAChR were done using the rat pheochromocytoma cell line PC12 that endogenously expresses the α7 nAChR (American Type Culture Collection, Manassas, VA). PC12 cells were maintained in Ham F-12 nutrient mixture, containing 15% horse serum, 2.5% fetal bovine serum (FBS), 2 mM L-glutamine, 1.5 g/L NaHCO3, 100 units of penicillin, and 100 μg streptomycin.
For the binding assay, PC12 cells were resuspended in binding buffer (phosphate buffered saline with calcium and magnesium, containing 1% FBS and 0.02% NaN3) at 1.5 to 2.7 × 10^6 cells per ml and 55 μl (0.8–1.5 × 10^5 cells per well) was added to a 96-well, v-bottom plate. […]
Phycoerythrin-labeled streptavidin (streptavidin-PE) (Becton-Dickinson, Franklin Lakes, NJ) was diluted in binding buffer and 50 μl was added to the cells (excluding the cell control) at a 1.0 μg/ml final concentration. […] BTx binding was quantified by fluorescence-activated cell sorting (FACS) analysis. For each concentration of test compound, the displacement of BTx from the α7 nAChR was quantified by measuring the intensity of the fluorescent signal. […] Ki values were calculated from IC50 values using the Cheng-Prusoff equation: Ki=IC50/1+[BTx]/KD

α4β2 nAChR = target: T3, α4β2 nAChR (Homo sapiens, UniProt P17787+P43681); experiment: ion channel assay on α4β2 nAChR in Xenopus oocytes; assay type: biochemical; conditions: data not shown
T3 construct: expressed in transfected cells; host or cells: Xenopus laevis oocytes injected with subunit cRNAs; clones from Dr. Jon Lindstrom
Protocol: Human nAChR receptor clones were obtained from Dr. Jon Lindstrom (University of Pennsylvania, Philadelphia, PA). The RIC-3 clone was obtained from Dr. Millet Treinin (Hebrew University, Jerusalem, Israel). Subsequent to linearization and purification of cloned cDNAs, RNA transcripts were prepared in vitro using the appropriate mMessage Machine kit from Ambion Inc. (Austin, TX).
The preparation of Xenopus laevis oocytes for RNA expression was conducted as previously described. Stage 5 oocytes were isolated and injected with […] (5–20 ng) of each subunit cRNAs. Recordings were conducted 2–5 days after injection. […]
Each oocyte received two initial control applications of 300 μM ACh, followed by the experimental drug application, and subsequent control application of 300 μM ACh, unless otherwise indicated. Responses to experimental drug applications were determined relative to the preceding ACh control responses in order to normalize the data, compensating for the varying levels of channel expression among the oocytes. Responses for α7 nAChR were calculated as net charge, since peak currents inaccurately report the agonist concentration dependence of α7 nAChR-mediated responses. […]

[4] = CD1, plasma, mouse, 5 mg/kg oral

T3 sequence (P43681 29-627 limits assumed): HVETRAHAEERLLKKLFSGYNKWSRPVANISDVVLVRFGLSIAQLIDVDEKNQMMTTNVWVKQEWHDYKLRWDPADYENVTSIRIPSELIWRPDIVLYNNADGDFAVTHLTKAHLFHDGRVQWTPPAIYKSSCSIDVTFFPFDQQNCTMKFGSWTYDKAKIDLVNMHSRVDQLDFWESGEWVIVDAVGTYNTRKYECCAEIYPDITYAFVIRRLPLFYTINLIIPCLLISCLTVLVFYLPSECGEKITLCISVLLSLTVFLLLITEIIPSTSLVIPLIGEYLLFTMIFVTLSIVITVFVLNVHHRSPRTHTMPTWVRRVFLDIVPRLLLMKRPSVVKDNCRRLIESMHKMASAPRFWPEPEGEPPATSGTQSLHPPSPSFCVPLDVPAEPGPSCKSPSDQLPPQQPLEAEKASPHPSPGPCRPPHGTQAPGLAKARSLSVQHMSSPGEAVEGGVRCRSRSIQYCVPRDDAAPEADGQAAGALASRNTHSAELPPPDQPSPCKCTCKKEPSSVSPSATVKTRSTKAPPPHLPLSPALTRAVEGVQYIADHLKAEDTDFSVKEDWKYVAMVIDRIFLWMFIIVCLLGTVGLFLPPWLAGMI
T3 sequence (P17787 26-502): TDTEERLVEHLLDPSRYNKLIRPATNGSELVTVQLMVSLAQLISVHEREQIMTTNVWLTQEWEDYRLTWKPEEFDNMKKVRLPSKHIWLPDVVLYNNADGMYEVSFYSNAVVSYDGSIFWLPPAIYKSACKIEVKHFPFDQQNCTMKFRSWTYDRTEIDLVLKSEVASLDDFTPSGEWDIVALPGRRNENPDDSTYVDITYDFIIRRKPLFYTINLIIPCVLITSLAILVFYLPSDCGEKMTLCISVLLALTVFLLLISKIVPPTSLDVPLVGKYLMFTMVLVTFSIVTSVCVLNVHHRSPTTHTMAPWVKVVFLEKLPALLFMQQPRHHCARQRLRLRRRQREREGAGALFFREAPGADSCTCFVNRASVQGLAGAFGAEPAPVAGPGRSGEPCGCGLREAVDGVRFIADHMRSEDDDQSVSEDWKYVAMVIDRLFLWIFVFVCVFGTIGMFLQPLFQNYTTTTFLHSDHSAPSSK
rat α7 nAChR, sequence (Q05941 23-502): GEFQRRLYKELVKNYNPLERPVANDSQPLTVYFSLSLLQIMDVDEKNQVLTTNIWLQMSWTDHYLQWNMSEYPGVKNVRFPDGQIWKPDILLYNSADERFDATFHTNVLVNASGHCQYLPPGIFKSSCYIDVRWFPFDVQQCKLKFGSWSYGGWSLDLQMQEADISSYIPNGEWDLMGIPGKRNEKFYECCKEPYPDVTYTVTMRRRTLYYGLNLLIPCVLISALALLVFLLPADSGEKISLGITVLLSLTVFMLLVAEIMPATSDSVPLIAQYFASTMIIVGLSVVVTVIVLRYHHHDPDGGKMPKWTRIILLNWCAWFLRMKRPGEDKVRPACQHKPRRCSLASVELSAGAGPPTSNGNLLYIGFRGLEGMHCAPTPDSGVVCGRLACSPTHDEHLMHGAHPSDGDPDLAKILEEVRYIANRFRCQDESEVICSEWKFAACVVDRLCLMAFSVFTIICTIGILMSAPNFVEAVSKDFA
T1 sequence (P02708 21-457): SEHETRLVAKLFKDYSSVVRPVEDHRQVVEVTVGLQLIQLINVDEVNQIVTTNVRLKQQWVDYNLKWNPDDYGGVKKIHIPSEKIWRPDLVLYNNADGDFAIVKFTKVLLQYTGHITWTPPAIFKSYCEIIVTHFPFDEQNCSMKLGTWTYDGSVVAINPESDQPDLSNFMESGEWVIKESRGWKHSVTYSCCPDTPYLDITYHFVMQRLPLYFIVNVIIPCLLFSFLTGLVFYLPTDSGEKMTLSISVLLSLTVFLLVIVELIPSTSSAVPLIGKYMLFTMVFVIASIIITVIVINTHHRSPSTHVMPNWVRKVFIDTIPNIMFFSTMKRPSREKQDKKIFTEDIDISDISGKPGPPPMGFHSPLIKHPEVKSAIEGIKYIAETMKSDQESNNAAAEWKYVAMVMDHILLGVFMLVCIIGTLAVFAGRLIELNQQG
T1 sequence (Q07001 22-517): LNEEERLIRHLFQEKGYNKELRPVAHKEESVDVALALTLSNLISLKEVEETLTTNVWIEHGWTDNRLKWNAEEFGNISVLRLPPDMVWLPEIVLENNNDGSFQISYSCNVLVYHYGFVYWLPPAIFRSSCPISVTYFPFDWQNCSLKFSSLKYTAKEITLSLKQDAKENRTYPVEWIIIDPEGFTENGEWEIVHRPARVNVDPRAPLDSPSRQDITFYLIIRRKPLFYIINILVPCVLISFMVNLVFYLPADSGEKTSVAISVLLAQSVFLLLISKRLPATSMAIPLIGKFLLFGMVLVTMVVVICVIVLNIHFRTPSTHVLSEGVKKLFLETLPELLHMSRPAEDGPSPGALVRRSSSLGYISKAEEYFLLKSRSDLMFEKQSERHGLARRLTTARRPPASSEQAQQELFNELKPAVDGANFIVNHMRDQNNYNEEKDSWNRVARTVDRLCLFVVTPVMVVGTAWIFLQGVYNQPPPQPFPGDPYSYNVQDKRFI
T1 sequence (P07510 23-517): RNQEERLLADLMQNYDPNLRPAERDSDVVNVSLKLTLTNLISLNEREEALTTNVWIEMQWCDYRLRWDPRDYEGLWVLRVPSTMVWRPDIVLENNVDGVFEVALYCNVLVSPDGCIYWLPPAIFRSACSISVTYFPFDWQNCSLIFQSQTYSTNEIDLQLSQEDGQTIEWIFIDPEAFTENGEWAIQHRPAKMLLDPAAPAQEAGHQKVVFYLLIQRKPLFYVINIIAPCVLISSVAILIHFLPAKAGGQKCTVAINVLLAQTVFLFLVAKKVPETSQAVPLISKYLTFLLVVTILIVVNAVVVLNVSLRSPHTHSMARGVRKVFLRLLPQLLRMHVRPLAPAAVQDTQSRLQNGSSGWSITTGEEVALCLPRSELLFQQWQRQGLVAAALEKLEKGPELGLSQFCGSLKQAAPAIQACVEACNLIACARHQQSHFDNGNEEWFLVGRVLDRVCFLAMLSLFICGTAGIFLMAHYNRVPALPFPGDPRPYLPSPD
T1 sequence (P11230 24-501): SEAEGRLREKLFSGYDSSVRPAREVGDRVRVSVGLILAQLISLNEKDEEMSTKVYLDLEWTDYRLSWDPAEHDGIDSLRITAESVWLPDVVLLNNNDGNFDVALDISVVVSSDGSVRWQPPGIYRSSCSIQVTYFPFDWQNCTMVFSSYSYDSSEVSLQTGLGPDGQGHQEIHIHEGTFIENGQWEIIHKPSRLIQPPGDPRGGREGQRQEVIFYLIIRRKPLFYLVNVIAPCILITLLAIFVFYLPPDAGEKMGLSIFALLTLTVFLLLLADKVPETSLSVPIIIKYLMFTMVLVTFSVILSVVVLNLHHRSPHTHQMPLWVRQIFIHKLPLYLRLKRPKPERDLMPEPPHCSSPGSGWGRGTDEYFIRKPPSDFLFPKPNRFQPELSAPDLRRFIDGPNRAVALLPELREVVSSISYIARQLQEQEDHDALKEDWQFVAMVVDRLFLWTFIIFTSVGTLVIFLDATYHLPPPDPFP

SMILES	Ki [1] [nM]	Kp at 30 min [2]	Vd ([2]; CD1, plasma, mouse, 1 mg/kg IV) [L/kg]	half-life ([2]; CD1, plasma, mouse, 1 mg/kg IV) [min]	AUC [2, 4] [ng·h/mL]	Cmax [2, 4]	Tmax [2, 4] [min]	bioavailability [2, 4] [%]	Cl ([2]; mouse, 1 mg/kg IV) [mL/min/kg]	T1/2 ([2]; mouse, 5 mg/kg oral) [min]	Brain penetration [2] [%]	ion channel response of PNU-120596 primed cells [3]	Ki (rat α7 nAChR) [nM]	clearance ([2]; CD1, plasma, mouse, 1 mg/kg IV) [mL/min/kg]	half-life [2, 4] [min]	IC50 (α4β2 nAChR; read-out: IC50, antagonist of α4β2 nAChR) [nM]	IC50 (α4β2 nAChR; ion channel assay, read-out: IC50, inhibition of α4β2 nAChR) [nM]
COc1ccc(NC(=O)N2CCNC[C@@H]2COc2cccnc2)cc1 [PMP-072, (R)-N-(4-methoxyphenyl)-2-((pyridin-3-yloxy)methyl)piperazine-1-carboxamide]	> 100000	0.06	5.83	39	588	324 ng/mL and 940 nM	30	76	103	104	6	able to activate large ion channel currents	6.9 ± 1.4	–	–	–	–
c1cncc(OC[C@@H]2CNCCN2c2nc3ncccc3o2)c1 [PMP-311, (S)-2-(2-((Pyridin-3-yloxy)methyl)piperazin-1-yl)oxazolo[4,5-b]pyridine]	> 100000	0.44	1.94	19	567	787 ng/mL and 2.5 µM	15	50	–	–	44	–	0.9 ± 0.2	72	98	~20	< 1000
